Marks after values point to notes of the source that are not given here.
How the values were obtained:
[1] = system: L1210vMDRC.06 cells; test: MDR sensitization (reversal) assay, doxorubicin, XTT viability; format: cell-based, mouse; settings: compound 2.5 μM, IC50 Dox/IC50 Dox+Inhibitor
Procedure: (§1) We carried out multidrug resistance reversal (MDR) assays using L1210vMDRC.06 or HL60/Vinc cell lines. L1210vMDRC.06 are L1210 mouse leukemia cells transduced with the pHaMDR1/A retrovirus carrying a MDR1 cDNA, as described by Pastan et al., Proc. Natl. Acad. Sci. USA, 85, pp. 4486–4490 (1988). The L1210vMDRC.06 multidrug resistant line is a cell line that has been drug-selected by culturing transfected cells in 0.06 μg/ml colchicine. The HL60/Vinc human promyleocytic leukemia cell line is a multidrug resistant cell line derived from HL60 drug-sensitive parental cells by selection in increasing concentrations of vincristine.
Using L1210vMDRC.06, multidrug resistance reversal assays were conducted by plating 1×10^4 cells/well in 96 well microtiter plates and exposing them to a concentration range of doxorubicin (50 nM–10 μM) in the presence or absence of compounds of this invention (0.1, 0.25, 0.5, 1.0, or 2.5 μM) as described in U. Germann et al., Anti-Cancer Drugs, 8, pp. 125–140 (1997). After culture for 3 days, the viability of cells was quantitated using XTT dye to assess mitochondrial function [Roehm et al., J. Immunol. […] Results were determined by comparison of the IC50 for doxorubicin alone to the IC50 for doxorubicin+compound. An MDR ratio was calculated (IC50 Dox/IC50 Dox+Inhibitor) and the integer value used for comparison of compound potencies.

[2] = system: pheochromocytoma PC12 cells; test: Neurite outgrowth quantitation in PC12 cell system; format: cell-based, rat; settings: 1–5 ng/ml NGF, 72 hours
Procedure: In order to directly determine the neurotrophic activity of compounds described in this invention, the neurite outgrowth assay was carried out with pheochromocytoma PC12 cells as described by Lyons et al. (1994).
PC12 cells were maintained at 37° C. and 5% CO2 in Dulbecco's modified Eagle's medium (DMEM) supplemented with 10% heat-inactivated horse serum, 5% heat-inactivated fetal bovine serum (FBS), and 1% glutamate.
The cells were then plated at […] in 96 well plates coated with […] rat tail collagen and allowed to attach overnight. The medium was then replaced with DMEM, 2% heat-inactivated horse serum, 1% glutamate, 1–5 ng/ml of NGF (Sigma) and varying concentrations of the compounds of this invention (0.01 nM–10000 nM). The background control culture was administered with […] of NGF alone without compound. Positive control cultures were administered with high concentration of NGF (50 ng/ml). The cells were then incubated at 37° C. at 5% CO2 for 72 hours, fixed with 3% formaldehyde and nerve outgrowth was determined visually on a scale of 0 to 4.

[3] = target: FKBP (Homo sapiens, UniProt P62942); test: Rotamase inhibition assay (chymotrypsin-coupled PPIase assay); format: biochemical; settings: 15 nM FKBP, 30 μM Suc-Ala-Leu-Pro-Phe-pNA, 15° C.
Sequence of FKBP (P62942 whole entry): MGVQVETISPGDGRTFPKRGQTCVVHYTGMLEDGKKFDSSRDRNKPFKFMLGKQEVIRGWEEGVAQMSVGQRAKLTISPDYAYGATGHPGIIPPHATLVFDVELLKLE
Procedure: Inhibition of FKBP enzyme activity was determined in the PPIase assay described in S. T. Park et al., J. Biol. Chem., 267, pp. 3316–24 (1992), the disclosure of which is herein incorporated by reference. This is a chymotrypsin-coupled assay in which FKBP catalyzes the cis to trans isomerization of the Leu-Pro bond in the peptide substrate Suc-Ala-Leu-Pro-Phe-pNA. The trans form, but not the cis form, is cleavable by chymotrypsin. The release Phe-pNA was monitored by absorbance at 400 nm. Chymotrypsyn cleavage is very rapid and therefore cis-to-trans isomerization is rate-limiting.
Each reaction mix consisted of 0.1 M Tris buffer, pH 7.8, 15 nM FKBP, 30 μM substrate and 0.5 nM to 10 μM of compound to be tested diluted in Me2SO. The mixture was incubated at 15° C. for 5 minutes and then reaction was initiated by addition of chymotrypsin (100 μg/ml final concentration) and followed spectrophotometrically for 5 minutes. Total reaction volume was 1 ml.

[4] = system: HL60/Vinc cells; test: MDR sensitization (reversal) assay, doxorubicin, XTT viability; format: cell-based, human; settings: compound 2.5 μM, IC50 doxorubicin alone / IC50 doxorubicin plus compound
Procedure: as §1
Assays using HL60/Vinc cells were performed by plating cells in 96 well microtiter plates at a concentration of 4×10^4 cells/well. The cells were then exposed to various concentrations of doxorubicin (9 nM to 6.7 μM) in the presence or absence of various compounds of this invention at various concentrations (0.5, 1.0, 2.5, 5.0 or 10 μM) as described in U. Germann et al., Anti-Cancer Drugs, 8, pp. 141–155 (1997). After culturing the cells for 3 days, their viability was quantitated using the XTT dye method to assess mitochondrial function (Roehm et al., supra). Results were expressed as a ratio of the IC50 for doxorubicin alone to the IC50 for doxorubicin plus compound. In all assays the intrinsic antiproliferative or cytotoxicity activity of the MDR inhibitors was also determined for HL60/Vinc cells.

COc1cc(C(=O)CN2CCCCC2C(=O)OC(CCCc2cccnc2)CCCc2cccnc2)cc(OC)c1OC (stereo not shown) [Compound 105]
MDR Ratio [1]: 10 | Neurite outgrowth, visual scale of 0 to 4 ([2]; compound 10 nM): 4 | Neurite outgrowth, visual scale of 0 to 4 ([2]; compound 100 nM): 4 | Neurite outgrowth, visual scale of 0 to 4 ([2]; compound 1000 nM): 0

CC(C)CN1CCCCC1C(=O)OC(CCCc1ccncc1)CCCc1cccnc1 (stereo not shown) [Compound 112]
Neurite outgrowth, visual scale of 0 to 4 ([2]; compound 10 nM): 3* | Neurite outgrowth, visual scale of 0 to 4 ([2]; compound 100 nM): 4* | Neurite outgrowth, visual scale of 0 to 4 ([2]; compound 1000 nM): 3* | Ki [3]: > 50 µM | MDR Ratio [4]: 2.4

CN(CCc1ccccn1)C(=O)C(Cc1ccccc1)N(C)S(=O)(=O)c1ccc(N)cc1 (stereo in doubt) [Compound 2, (S)-(N-methyl)-2-(methyl-(4-amino-benzenesulfanilamido))-3-phenyl-N-(2-(pyridin-2yl)ethyl) propionamide]
Neurite outgrowth, visual scale of 0 to 4 ([2]; compound 10 nM): 3*** | Neurite outgrowth, visual scale of 0 to 4 ([2]; compound 100 nM): 3*** | Neurite outgrowth, visual scale of 0 to 4 ([2]; compound 1000 nM): 4*** | Ki [3]: > 50 µM | MDR Ratio [4]: 0.7

CN(C(=O)[C@H](Cc1ccccc1)N(C)S(=O)(=O)c1ccccc1[N+](=O)[O-])C(CCCc1cccnc1)CCCc1cccnc1 [Compound 8]
Neurite outgrowth, visual scale of 0 to 4 ([2]; compound 10 nM): 4* | Neurite outgrowth, visual scale of 0 to 4 ([2]; compound 100 nM): 2* | Neurite outgrowth, visual scale of 0 to 4 ([2]; compound 1000 nM): 3* | Ki [3]: > 50 µM | MDR Ratio [4]: 28.5

O=C(NCc1ccncc1)C1CCCCN1 (stereo not shown) [Compound 104]
Neurite outgrowth, visual scale of 0 to 4 ([2]; compound 0.01 nM): 3* | Neurite outgrowth, visual scale of 0 to 4 ([2]; compound 0.1 nM): 3* | Neurite outgrowth, visual scale of 0 to 4 ([2]; compound 1 nM): 2* | Neurite outgrowth, visual scale of 0 to 4 ([2]; compound 10 nM): 2* | Neurite outgrowth, visual scale of 0 to 4 ([2]; compound 100 nM): 4* | Neurite outgrowth, visual scale of 0 to 4 ([2]; compound 1000 nM): 3* | Neurite outgrowth, visual scale of 0 to 4 ([2]; compound 10000 nM): 4* | Ki [3]: > 50 µM | MDR Ratio [4]: 0.6
